Test results published in the supplement of paper PMC10883282.
± gives the standard deviation of the averaged measurements.

Tested on: SK-LMS-1
Assay: relative viability vs DMSO control (72 h) (fraction); higher = more viable cells
Method in brief: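 Sarcoma cell lines were seeded in 384-well plates at densities chosen for 80–90% confluence, then 24 h later given 2.5 µl of serially diluted compound drawn from source plates spanning 10 mM to 0.0002 mM. They were held 72 h at 37 °C, 5% CO2, with 0.1% DMSO vehicle and a 5 µM positive control included. Relative viability was read with ATPLite as percent growth and averaged over up to triplicate wells. Rescaling placed full at 1 and none at 0.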

Compound	relative viability (0.00017 µM)	relative viability (0.00051 µM)	relative viability (0.00152 µM)	relative viability (0.00457 µM)	relative viability (0.01372 µM)	relative viability (0.04115 µM)	relative viability (0.1235 µM)	relative viability (0.3704 µM)	relative viability (1.111 µM)	relative viability (3.333 µM)	relative viability (10 µM)
COc1cc2/c(=N/c3ccc(Br)cc3F)nc[nH]c2cc1OCC1CCN(C)CC1 [Vandetanib]	0.994 ± 0.015	1.01 ± 0.029	1.02 ± 0.049	1.08 ± 0.015	1.02 ± 0.09	1.05 ± 0.039	1.01 ± 0.015	1.03 ± 0.074	0.939 ± 0.011	0.484 ± 0.0052	0.103 ± 0.014
CCCS(=O)(=O)Nc1ccc(F)c(C(=O)c2c[nH]c3ncc(-c4ccc(Cl)cc4)cc23)c1F [Vemurafenib]	0.994 ± 0.053	0.988 ± 0.079	1.01 ± 0.081	1.06 ± 0.053	1.03 ± 0.028	0.979 ± 0.06	1.02 ± 0.013	0.959 ± 0.01	0.855 ± 0.033	0.667 ± 0.018	0.697 ± 0.1
C[C@@H](c1ccc2nccn2c1)n1nnc2ncc(-c3cnn(C)c3)nc21 [Volitinib]	1.03 ± 0.013	0.979 ± 0.016	0.975 ± 0.027	0.958 ± 0.027	0.763 ± 0.019	0.636 ± 0.017	0.548 ± 0.016	0.554 ± 0.024	0.546 ± 0.019	0.537 ± 0.016	0.538 ± 0.0092
C=CC(=O)N1CCC([C@@H]2CCNc3c(C(N)=O)c(-c4ccc(Oc5ccccc5)cc4)nn32)CC1 [Zanubrutinib]	0.996 ± 0.023	1.04 ± 0.055	1.03 ± 0.05	1.051 ± 0.0069	1.01 ± 0.06	1.05 ± 0.015	1.03 ± 0.025	1.08 ± 0.021	1.06 ± 0.012	1.07 ± 0.012	1.05 ± 0.04
